From patent US11591336B2 (Relay Therapeutics, Inc., priority 2017, dated 2023)
Structures can show the parent of a compound that is named as a salt.

target: SHP2 (Homo sapiens (Human), UniProt Q06124); test: SHP2 Allosteric Inhibition Assay (DiFMUP prompt fluorescence); assay type: biochemical; details: 0.25 nM SHP2 activated with 0.5 μM peptide IRS1_pY1172(dPEG8)pY1222; substrate DiFMUP 100 μM; 25° C.

IC50 | Compound
< 1000 nM | C[C@H]1CCN(c2n[nH]c3nc(N4CCC(C)(CN)CC4)cnc23)c2ccc(-c3ncon3)cc21 [Compound 183, 1-(4-methyl-1-{3-[(4S)-4-methyl-6-(1,2,4-oxadiazol-3-yl)-1,2,3,4-tetrahydroquinolin-1-yl]-1H-pyrazolo[3,4-b]pyrazin-6-yl}piperidin-4-yl)methanamine]
< 1000 nM | CC1(CN)CCN(c2cnc3c(N4CCCc5c4cccc5S(C)(=O)=O)n[nH]c3n2)CC1 [Compound 185]
< 1000 nM | CN1CCN(c2n[nH]c3nc(N4CCC(C)(CN)CC4)cnc23)c2cccnc21 [Compound 186]
< 1000 nM | CC(=O)N1CCN(c2n[nH]c3nc(N4CCC(C)(CN)CC4)cnc23)c2ccc(C#N)cc21 [Compound 187]
< 1000 nM | Cn1cc(-c2ccc3c(n2)OCCN3c2n[nH]c3nc(N4CCC(C)(CN)CC4)cnc23)cn1 [Compound 188]
< 1000 nM | CNC(=O)N1CCN(c2n[nH]c3nc(N4CCC(C)(CN)CC4)cnc23)c2ccccc21 [Compound 189]
< 1000 nM | CC1(CN)CCN(c2cnc3c(N4CCNc5ccccc54)n[nH]c3n2)CC1 [Compound 190]
< 1000 nM | CSc1cccc2c1CCCN2c1n[nH]c2nc(N3CCC(C)(CN)CC3)cnc12 [Compound 191]
< 1000 nM | C[S+]([O-])c1cccc2c1CCCN2c1n[nH]c2nc(N3CCC(C)(CN)CC3)cnc12 (stereo not shown) [Compound 192]
< 1000 nM | CCC(=O)N1CCN(c2n[nH]c3nc(N4CCC(C)(CN)CC4)cnc23)c2ccccc21 [Compound 193]
< 1000 nM | CC1(CN)CCN(c2cnc3c(N4CCN(C(=O)CO)c5ccccc54)n[nH]c3n2)CC1 [Compound 194, 1-(4-(6-(4-(aminomethyl)-4-methylpiperidin-1-yl)-1H-pyrazolo[3,4-b]pyrazin-3-yl)-3,4-dihydroquinoxalin-1(2H)-yl)-2-hydroxyethan-1-one]
< 1000 nM | CN1CCN(c2n[nH]c3nc(N4CCC(C)(CN)CC4)cnc23)c2ccc(Cl)nc21 [Compound 195]
< 1000 nM | C[C@H]1CCN(c2n[nH]c3nc(N4CCC(C)(CN)CC4)cnc23)c2ccc(-c3nnc[nH]3)nc21 [Compound 198, 1-(4-methyl-1-{3-[(4S)-4-methyl-6-(4H-1,2,4-triazol-3-yl)-1,2,3,4-tetrahydro-1,5-naphthyridin-1-yl]-1H-pyrazolo[3,4-b]pyrazin-6-yl}piperidin-4-yl)methanamine]
< 1000 nM | C[C@@H]1CCN(c2n[nH]c3nc(N4CCC(C)(CN)CC4)cnc23)c2ccc(-c3nnc[nH]3)nc21 [Compound 199, 1-(4-methyl-1-{3-[(4R)-4-methyl-6-(4H-1,2,4-triazol-3-yl)-1,2,3,4-tetrahydro-1,5-naphthyridin-1-yl]-1H-pyrazolo[3,4-b]pyrazin-6-yl}piperidin-4-yl)methanamine]
≥ 10000 nM | C[C@@H]1OCC2(CCN(c3cnc4c(N5CCCc6ncccc65)n[nH]c4n3)CC2)C1O (stereo partly drawn) [Compound 201, (3S)-8-(3-(3,4-dihydro-1,5-naphthyridin-1(2H)-yl)-1H-pyrazolo[3,4-b]pyrazin-6-yl)-3-methyl-2-oxa-8-azaspiro[4.5]decan-4-ol]
< 1000 nM | NC1=NCCC12CCN(c1cnc3c(N4CCCc5ncccc54)n[nH]c3n1)CC2 [Compound 202, 8-(3-(3,4-dihydro-1,5-naphthyridin-1(2H)-yl)-1H-pyrazolo[3,4-b]pyrazin-6-yl)-2,8-diazaspiro[4.5]dec-1-en-1-amine dihydrochloride]
1000 to 10000 nM | NC1CCCC12CCN(c1cnc3c(N4CCCc5ncccc54)n[nH]c3n1)C2 (stereo not shown) [Compound 203, 2-(3-(3,4-dihydro-1,5-naphthyridin-1(2H)-yl)-1H-pyrazolo[3,4-b]pyrazin-6-yl)-2-azaspiro[4.4]nonan-6-amine]
< 1000 nM | C[C@@H]1OCC2(CCN(c3cnc4c(N5CCCc6c5ccc(C#N)c6C5CC5)n[nH]c4n3)CC2)[C@@H]1N [Compound 207]
< 1000 nM | Cc1c(C#N)ccc2c1CCCN2c1n[nH]c2nc(N3CCC4(CC3)CO[C@@H](C)[C@H]4N)cnc12 [Compound 208]
< 1000 nM | C[C@@H]1OCC2(CCN(c3cnc4c(N5CCCc6c(-c7cnn(C)c7)cccc65)n[nH]c4n3)CC2)[C@@H]1N [Compound 209]
1000 to 10000 nM | C[C@@H]1OCC2(CCN(c3cnc4c(N5CCCc6c5ccc(C#N)c6-c5cnn(C)c5)n[nH]c4n3)CC2)[C@@H]1N [Compound 210]
< 1000 nM | N[C@H]1CCCC12CCN(c1cnc3c(N4CCCc5ncccc54)n[nH]c3n1)CC2 [Compound 211]
< 1000 nM | N[C@@H]1CCCC12CCN(c1cnc3c(N4CCCc5ncccc54)n[nH]c3n1)CC2 [Compound 212]
< 1000 nM | N[C@H]1COCC12CCN(c1cnc3c(N4CCCc5ncccc54)n[nH]c3n1)CC2 [Compound 213]
< 1000 nM | N[C@@H]1COCC12CCN(c1cnc3c(N4CCCc5ncccc54)n[nH]c3n1)CC2 [Compound 214]
1000 to 10000 nM | O=C1NC2(CCN(c3cnc4c(N5CCCc6ncccc65)n[nH]c4n3)CC2)CO1 [Compound 215]

IC50 | Compound
< 1000 nM | NC1=NC2(CCN(c3cnc4c(N5CCCc6ncccc65)n[nH]c4n3)CC2)CO1 [Compound 216, 8-(3-(3,4-dihydro-1,5-naphthyridin-1(2H)-yl)-1H-pyrazolo[3,4-b]pyrazin-6-yl)-3-oxa-1,8-diazaspiro[4.5]dec-1-en-2-amine hydrochloride]
< 1000 nM | C[C@@H]1OCC2(CCN(c3cnc4c(N5CCCc6cc(C#N)ccc65)n[nH]c4n3)CC2)[C@@H]1N [Compound 217]
< 1000 nM | CC1CCN(c2n[nH]c3nc(N4CCC5(CC4)CO[C@@H](C)[C@H]5N)cnc23)c2ccc(C#N)cc21 (stereo partly shown) [Compound 218]
< 1000 nM | C[C@@H]1CCN(c2n[nH]c3nc(N4CCC5(CC4)CO[C@@H](C)[C@H]5N)cnc23)c2ccc(C#N)cc21 [Compound 219]
< 1000 nM | C[C@@H]1OCC2(CCN(c3cnc4c(N5CC[C@H](C)c6cc(C#N)ccc65)n[nH]c4n3)CC2)[C@@H]1N [Compound 220]
< 1000 nM | C[C@@H]1OCC2(CCN(c3cnc4c(N5CCc6c(-c7nccs7)cccc65)n[nH]c4n3)CC2)[C@@H]1N [Compound 221]
1000 to 10000 nM | CC1CCN(c2n[nH]c3nc(N4CCC5(CC4)CNC(=O)C5)cnc23)c2cccnc21 (stereo not shown) [Compound 222, 8-[3-(4-methyl-1,2,3,4-tetrahydro-1,5-naphthyridin-1-yl)-1H-pyrazolo[3,4-b]pyrazin-6-yl]-2,8-diazaspiro[4.5]decan-3-one]
< 1000 nM | CC1CCN(c2n[nH]c3nc(N4CCC5(CC4)CO[C@@H](C)[C@H]5N)cnc23)c2cc(F)c(C#N)cc21 (stereo partly shown) [Compound 223]
< 1000 nM | C[C@@H]1OCC2(CCN(c3cnc4c(N5CCCc6nc(-c7cnn(C)c7)ccc65)n[nH]c4n3)CC2)[C@@H]1N [Compound 224, (3S,4S)-3-methyl-8-(3-(6-(1-methyl-1H-pyrazol-4-yl)-3,4-dihydro-1,5-naphthyridin-1(2H)-yl)-1H-pyrazolo[3,4-b]pyrazin-6-yl)-2-oxa-8-azaspiro[4.5]decan-4-amine]
< 1000 nM | C[C@@H]1OCC2(CCN(c3cnc4c(N5CCCc6c5ccnc6N5CCOC5=O)n[nH]c4n3)CC2)[C@@H]1N [Compound 225]
< 1000 nM | C[C@@H]1OCC2(CCN(c3cnc4c(N5CCCc6c5ccnc6-c5cnn(C)c5)n[nH]c4n3)CC2)[C@@H]1N [Compound 226]
< 1000 nM | C[C@@H]1OCC2(CCN(c3cnc4c(N5CC[C@H](C)c6cc(-c7ncon7)ccc65)n[nH]c4n3)CC2)[C@@H]1N [Compound 227, (3S,4S)-3-methyl-8-(3-((S)-4-methyl-6-(1,2,4-oxadiazol-3-yl)-3,4-dihydroquinolin-1(2H)-yl)-1H-pyrazolo[3,4-b]pyrazin-6-yl)-2-oxa-8-azaspiro[4.5]decan-4-amine]
< 1000 nM | C[C@@H]1OCC2(CCN(c3cnc4c(N5CCCc6c5ccnc6C#N)n[nH]c4n3)CC2)[C@@H]1N [Compound 228]
< 1000 nM | C[C@@H]1OCC2(CCN(c3cnc4c(N5CCC(=C(F)F)c6ccccc65)n[nH]c4n3)CC2)[C@@H]1N [Compound 231]
< 1000 nM | C[C@@H]1OCC2(CCN(c3cnc4c(N5CCCc6c5ccnc6C5CC5)n[nH]c4n3)CC2)[C@@H]1N [Compound 232]
< 1000 nM | C[C@@H]1OCC2(CCN(c3cnc4c(N5CCNc6ccccc65)n[nH]c4n3)CC2)[C@@H]1N [Compound 234]
< 1000 nM | CC(=O)N1CCN(c2n[nH]c3nc(N4CCC5(CC4)CO[C@@H](C)[C@H]5N)cnc23)c2ccccc21 [Compound 235]
< 1000 nM | C[C@@H]1OCC2(CCN(c3cnc4c(N5CCCc6c5ccnc6C(F)F)n[nH]c4n3)CC2)[C@@H]1N [Compound 236]
< 1000 nM | C[C@@H]1OCC2(CCN(c3cnc4c(N5CCCc6nc(C7=CCOCC7)ccc65)n[nH]c4n3)CC2)[C@@H]1N [Compound 237]
< 1000 nM | C[C@@H]1OCC2(CCN(c3cnc4c(N5CC(=O)N(C)c6ccccc65)n[nH]c4n3)CC2)[C@@H]1N [Compound 238]
< 1000 nM | C[C@@H]1OCC2(CCN(c3cnc4c(N5CCCc6nc(C7CCOCC7)ccc65)n[nH]c4n3)CC2)[C@@H]1N [Compound 239]
< 1000 nM | C[C@@H]1OCC2(CCN(c3cnc4c(N5CCCc6c5ccn(C)c6=O)n[nH]c4n3)CC2)[C@@H]1N [Compound 240]
< 1000 nM | C[C@@H]1OCC2(CCN(c3cnc4c(N5CC(=O)Nc6cnccc65)n[nH]c4n3)CC2)[C@@H]1N [Compound 241]
< 1000 nM | C[C@@H]1OCC2(CCN(c3cnc4c(N5CCCc6nc(C(N)=O)ccc65)n[nH]c4n3)CC2)[C@@H]1N [Compound 243, 5-(6-((3S,4S)-4-amino-3-methyl-2-oxa-8-azaspiro[4.5]decan-8-yl)-1H-pyrazolo[3,4-b]pyrazin-3-yl)-5,6,7,8-tetrahydro-1,5-naphthyridine-2-carboxamide]
< 1000 nM | C[C@@H]1OCC2(CCN(c3cnc4c(N5CCCc6c(C(=O)O)cccc65)n[nH]c4n3)CC2)[C@@H]1N [Compound 244, 1-(6-((3S,4S)-4-amino-3-methyl-2-oxa-8-azaspiro[4.5]decan-8-yl)-1H-pyrazolo[3,4-b]pyrazin-3-yl)-1,2,3,4-tetrahydroquinoline-5-carboxylic Acid]

Compound | IC50
Cc1nccc2c1CCCN2c1n[nH]c2nc(N3CCC4(CC3)CO[C@@H](C)[C@H]4N)cnc12 [Compound 233] | < 1000 nM
